The values below come from ChEMBL document CHEMBL3991601, “The target landscape of clinical kinase drugs” (Science, 2017).

Each structure is given as a SMILES string. Activity calls are given as the source filed them. Rule as the data show it, for most assays here: actives have a measured Kd and inactives only a lower limit.

Assay [1] deals with T1, Serine/threonine-protein kinase Nek9 (Homo sapiens, UniProt Q8TD19).
T1 sequence (Q8TD19 whole entry): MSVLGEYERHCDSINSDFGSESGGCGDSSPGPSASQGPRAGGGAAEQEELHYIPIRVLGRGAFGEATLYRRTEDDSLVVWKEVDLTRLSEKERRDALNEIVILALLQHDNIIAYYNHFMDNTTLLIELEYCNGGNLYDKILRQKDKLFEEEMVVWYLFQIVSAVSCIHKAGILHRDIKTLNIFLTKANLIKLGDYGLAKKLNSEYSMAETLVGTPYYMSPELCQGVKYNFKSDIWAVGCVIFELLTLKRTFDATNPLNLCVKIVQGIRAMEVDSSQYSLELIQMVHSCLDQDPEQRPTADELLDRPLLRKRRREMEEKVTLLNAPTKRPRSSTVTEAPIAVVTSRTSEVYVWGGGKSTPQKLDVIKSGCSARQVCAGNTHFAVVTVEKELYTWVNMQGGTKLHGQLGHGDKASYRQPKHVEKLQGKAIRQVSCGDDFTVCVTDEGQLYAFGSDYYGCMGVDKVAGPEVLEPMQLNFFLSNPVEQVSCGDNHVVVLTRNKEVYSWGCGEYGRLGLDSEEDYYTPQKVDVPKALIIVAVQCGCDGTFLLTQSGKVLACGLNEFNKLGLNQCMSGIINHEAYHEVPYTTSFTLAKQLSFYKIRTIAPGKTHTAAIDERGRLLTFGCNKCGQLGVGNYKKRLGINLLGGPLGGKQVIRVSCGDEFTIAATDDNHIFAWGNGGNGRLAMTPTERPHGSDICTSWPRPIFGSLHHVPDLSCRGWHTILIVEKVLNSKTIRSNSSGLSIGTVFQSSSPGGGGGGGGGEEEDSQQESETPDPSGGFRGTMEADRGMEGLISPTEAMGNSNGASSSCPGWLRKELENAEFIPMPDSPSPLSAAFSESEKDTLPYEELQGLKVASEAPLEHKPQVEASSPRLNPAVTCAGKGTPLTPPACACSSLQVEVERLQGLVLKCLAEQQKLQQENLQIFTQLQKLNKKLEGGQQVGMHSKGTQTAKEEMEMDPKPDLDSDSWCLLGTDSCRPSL

Assay [2] concerns the target T2, Ras-related protein Rab-10 (Homo sapiens, UniProt P61026).
T2 sequence (P61026 whole entry): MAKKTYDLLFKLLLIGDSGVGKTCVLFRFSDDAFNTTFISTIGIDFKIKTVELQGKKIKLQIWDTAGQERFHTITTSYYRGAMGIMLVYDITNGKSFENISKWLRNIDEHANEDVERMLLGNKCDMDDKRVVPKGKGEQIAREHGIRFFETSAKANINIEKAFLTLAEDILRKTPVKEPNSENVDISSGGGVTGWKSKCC

For assay [3], the target named is Ephrin type-A receptor 5 (Homo sapiens, UniProt P54756).
Ephrin type-A receptor 5, sequence (P54756 whole entry): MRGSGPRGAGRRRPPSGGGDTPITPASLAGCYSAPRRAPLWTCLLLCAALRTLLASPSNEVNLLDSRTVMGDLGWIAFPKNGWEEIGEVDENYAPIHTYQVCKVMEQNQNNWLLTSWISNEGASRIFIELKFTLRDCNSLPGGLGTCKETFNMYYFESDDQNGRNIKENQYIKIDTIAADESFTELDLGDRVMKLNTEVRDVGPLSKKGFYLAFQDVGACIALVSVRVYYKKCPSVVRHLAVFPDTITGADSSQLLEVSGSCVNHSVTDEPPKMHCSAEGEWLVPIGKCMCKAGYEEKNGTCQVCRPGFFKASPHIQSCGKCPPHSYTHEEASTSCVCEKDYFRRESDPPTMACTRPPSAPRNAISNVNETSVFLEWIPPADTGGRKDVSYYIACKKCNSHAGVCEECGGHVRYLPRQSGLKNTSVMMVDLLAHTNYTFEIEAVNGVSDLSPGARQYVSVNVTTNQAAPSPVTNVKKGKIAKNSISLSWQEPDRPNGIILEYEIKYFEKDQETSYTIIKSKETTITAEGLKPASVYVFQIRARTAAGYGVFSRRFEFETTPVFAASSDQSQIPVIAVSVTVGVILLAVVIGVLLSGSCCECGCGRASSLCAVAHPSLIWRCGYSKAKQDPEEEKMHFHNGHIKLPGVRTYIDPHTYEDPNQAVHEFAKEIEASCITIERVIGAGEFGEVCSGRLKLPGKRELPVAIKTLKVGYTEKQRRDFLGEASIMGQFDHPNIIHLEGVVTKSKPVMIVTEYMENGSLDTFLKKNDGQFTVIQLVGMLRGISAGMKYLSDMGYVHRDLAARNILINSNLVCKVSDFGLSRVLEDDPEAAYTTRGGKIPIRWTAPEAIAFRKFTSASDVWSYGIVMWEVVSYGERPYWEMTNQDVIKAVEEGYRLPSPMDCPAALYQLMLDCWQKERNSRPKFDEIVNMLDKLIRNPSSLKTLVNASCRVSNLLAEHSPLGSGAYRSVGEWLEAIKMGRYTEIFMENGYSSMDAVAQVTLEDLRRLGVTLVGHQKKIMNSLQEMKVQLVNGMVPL
The target of assay [4] is T3, Heme oxygenase 2 (Homo sapiens, UniProt P30519).
T3 sequence (P30519 whole entry): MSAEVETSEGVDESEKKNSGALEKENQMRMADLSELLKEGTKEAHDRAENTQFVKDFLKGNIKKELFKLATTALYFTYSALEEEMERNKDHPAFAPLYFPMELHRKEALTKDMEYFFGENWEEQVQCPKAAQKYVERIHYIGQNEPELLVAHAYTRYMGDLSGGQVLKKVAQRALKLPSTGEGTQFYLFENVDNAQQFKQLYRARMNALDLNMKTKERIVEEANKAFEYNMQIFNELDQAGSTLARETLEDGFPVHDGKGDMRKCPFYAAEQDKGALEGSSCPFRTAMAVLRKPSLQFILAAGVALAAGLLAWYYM

Assay [5] has as its target Cyclin-dependent kinase 6 (Homo sapiens, UniProt Q00534).
Assay [6] deals with T4, ADP/ATP translocase 3 (Homo sapiens, UniProt P12236).
T4 sequence (P12236 whole entry): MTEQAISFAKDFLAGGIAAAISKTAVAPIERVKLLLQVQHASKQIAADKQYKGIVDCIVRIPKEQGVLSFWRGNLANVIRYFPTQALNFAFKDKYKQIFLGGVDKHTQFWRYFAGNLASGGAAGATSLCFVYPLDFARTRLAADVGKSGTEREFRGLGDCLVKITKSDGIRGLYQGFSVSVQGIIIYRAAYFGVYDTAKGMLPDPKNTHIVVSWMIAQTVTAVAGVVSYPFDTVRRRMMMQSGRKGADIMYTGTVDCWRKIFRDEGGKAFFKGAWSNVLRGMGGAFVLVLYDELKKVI

In assay [7] the target is T5, Serine/threonine-protein kinase D2 (Homo sapiens, UniProt Q9BZL6).
T5 sequence (Q9BZL6 whole entry): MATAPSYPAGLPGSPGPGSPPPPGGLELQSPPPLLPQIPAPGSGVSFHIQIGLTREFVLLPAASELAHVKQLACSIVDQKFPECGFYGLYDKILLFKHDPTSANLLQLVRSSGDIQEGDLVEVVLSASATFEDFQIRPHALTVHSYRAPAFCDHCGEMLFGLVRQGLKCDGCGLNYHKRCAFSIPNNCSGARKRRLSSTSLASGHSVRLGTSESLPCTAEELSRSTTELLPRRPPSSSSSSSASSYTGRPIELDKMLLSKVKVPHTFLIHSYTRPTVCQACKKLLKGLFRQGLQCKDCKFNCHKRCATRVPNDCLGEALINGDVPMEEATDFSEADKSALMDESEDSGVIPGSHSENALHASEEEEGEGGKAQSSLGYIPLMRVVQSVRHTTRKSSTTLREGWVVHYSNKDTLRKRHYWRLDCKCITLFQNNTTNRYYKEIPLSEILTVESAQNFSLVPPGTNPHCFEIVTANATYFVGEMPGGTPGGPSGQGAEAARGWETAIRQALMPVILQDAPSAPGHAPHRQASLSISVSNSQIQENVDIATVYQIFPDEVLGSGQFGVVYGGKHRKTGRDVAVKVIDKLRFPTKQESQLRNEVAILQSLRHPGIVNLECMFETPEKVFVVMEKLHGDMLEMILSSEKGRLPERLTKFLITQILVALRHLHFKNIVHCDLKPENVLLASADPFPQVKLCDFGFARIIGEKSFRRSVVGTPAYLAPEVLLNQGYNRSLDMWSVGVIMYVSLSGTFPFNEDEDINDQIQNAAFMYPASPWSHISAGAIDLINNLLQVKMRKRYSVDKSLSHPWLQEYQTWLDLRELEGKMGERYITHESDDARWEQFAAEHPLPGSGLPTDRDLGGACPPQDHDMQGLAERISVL

In assay [8] the target is Serine/threonine-protein kinase SIK2 (Homo sapiens, UniProt Q9H0K1).
Serine/threonine-protein kinase SIK2, sequence (Q9H0K1 whole entry): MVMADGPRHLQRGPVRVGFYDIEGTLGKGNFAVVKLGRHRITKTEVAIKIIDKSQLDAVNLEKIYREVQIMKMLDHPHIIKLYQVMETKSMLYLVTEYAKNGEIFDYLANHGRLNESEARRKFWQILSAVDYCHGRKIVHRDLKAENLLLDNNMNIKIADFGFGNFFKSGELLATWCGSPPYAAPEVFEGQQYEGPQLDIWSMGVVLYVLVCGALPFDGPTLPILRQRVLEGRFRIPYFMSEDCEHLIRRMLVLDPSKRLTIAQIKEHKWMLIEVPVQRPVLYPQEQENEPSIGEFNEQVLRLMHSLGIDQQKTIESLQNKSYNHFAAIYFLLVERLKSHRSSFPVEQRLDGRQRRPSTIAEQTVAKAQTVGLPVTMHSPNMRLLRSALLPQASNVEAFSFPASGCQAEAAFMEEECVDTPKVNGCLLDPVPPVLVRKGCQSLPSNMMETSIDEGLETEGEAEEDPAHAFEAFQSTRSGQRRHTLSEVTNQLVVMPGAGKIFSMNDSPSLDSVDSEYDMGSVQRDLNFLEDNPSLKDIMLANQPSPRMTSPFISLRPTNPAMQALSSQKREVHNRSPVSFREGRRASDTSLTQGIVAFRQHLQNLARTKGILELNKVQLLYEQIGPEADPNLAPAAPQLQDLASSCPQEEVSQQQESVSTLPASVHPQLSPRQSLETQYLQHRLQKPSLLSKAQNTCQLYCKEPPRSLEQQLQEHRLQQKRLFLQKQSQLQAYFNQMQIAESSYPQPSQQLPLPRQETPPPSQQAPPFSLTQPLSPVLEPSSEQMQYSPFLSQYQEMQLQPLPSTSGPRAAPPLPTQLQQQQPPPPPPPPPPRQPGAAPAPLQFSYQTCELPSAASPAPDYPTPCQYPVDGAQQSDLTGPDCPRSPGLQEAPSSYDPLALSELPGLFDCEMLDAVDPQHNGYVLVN
In assay [9] the target is Tyrosine-protein kinase JAK1 (Homo sapiens, UniProt P23458).
Tyrosine-protein kinase JAK1, sequence (P23458 whole entry): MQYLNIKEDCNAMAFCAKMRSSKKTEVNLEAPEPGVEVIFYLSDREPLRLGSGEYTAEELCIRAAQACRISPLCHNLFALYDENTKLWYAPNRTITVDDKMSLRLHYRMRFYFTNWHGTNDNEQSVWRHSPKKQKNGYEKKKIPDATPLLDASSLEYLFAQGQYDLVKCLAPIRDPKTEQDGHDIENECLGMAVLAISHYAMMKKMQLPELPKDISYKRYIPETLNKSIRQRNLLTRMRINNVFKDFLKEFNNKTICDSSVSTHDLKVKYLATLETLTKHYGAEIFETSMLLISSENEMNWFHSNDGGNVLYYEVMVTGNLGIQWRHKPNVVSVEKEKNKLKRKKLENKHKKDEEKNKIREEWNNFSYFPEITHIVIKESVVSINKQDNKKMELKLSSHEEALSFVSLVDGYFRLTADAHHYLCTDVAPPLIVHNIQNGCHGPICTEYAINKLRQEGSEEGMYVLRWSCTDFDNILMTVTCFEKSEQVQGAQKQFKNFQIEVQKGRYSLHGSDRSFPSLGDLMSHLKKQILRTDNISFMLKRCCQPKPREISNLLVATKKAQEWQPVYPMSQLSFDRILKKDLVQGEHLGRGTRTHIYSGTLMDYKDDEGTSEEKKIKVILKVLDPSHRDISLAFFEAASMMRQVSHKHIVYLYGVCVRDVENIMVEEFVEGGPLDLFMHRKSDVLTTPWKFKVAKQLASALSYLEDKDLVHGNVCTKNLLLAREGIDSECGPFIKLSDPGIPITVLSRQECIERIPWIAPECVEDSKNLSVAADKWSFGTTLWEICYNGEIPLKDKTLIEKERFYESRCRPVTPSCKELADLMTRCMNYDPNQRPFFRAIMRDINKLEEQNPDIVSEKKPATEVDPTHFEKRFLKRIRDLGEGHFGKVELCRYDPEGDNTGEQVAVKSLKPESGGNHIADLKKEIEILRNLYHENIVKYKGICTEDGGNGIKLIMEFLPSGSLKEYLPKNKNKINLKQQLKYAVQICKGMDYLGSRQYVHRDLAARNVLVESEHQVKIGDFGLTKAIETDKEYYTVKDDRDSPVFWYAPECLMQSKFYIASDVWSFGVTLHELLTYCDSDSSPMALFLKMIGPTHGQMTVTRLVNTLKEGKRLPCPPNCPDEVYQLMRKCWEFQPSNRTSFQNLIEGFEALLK
Assay [10] has as its target TGF-beta receptor type-2 (Homo sapiens, UniProt P37173).
Also: in the data inactive means no Kd found up to 30 µM.

TGF-beta receptor type-2, sequence (P37173 whole entry): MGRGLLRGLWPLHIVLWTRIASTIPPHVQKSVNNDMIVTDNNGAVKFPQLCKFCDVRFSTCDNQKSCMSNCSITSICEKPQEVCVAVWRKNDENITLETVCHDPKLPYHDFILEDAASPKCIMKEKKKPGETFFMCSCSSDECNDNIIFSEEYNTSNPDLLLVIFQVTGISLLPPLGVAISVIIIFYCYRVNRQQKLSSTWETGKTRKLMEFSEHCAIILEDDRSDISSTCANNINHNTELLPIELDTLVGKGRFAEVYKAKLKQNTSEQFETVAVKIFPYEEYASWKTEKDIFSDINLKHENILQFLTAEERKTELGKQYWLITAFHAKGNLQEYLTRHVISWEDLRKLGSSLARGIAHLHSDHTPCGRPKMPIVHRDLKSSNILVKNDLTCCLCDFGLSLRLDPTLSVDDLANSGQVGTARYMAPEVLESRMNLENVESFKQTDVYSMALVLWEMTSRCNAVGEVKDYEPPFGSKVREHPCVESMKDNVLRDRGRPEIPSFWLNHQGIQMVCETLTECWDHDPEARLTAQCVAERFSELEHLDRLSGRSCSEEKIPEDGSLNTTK
Cyclin-dependent kinase 6, sequence (Q00534 whole entry): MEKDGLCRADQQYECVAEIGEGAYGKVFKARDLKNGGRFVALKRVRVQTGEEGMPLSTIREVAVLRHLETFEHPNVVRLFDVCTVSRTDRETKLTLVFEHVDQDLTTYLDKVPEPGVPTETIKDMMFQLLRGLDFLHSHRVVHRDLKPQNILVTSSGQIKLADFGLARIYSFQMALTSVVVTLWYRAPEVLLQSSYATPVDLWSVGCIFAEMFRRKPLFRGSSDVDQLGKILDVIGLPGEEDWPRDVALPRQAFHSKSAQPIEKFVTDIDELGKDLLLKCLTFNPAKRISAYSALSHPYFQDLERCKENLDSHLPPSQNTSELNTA

Regarding `C[C@@H]1COC(Nc2ccc3ncnc(Nc4ccc(OCc5nccs5)c(Cl)c4)c3c2)=N1` [VARLITINIB], the Kd in assay [1], in assay [2], in assay [3], in [4], in [5] and in assay [6] was > 30 µM (inactive) throughout. The Kd in assay [7], in assay [8], in [9] and in assay [10] was > 30 µM (inactive) throughout.

On to `CCc1cc2c(cc1N1CCC(N3CCOCC3)CC1)C(C)(C)c1[nH]c3cc(C#N)ccc3c1C2=O` [ALECTINIB], for which the Kd in [1], in [2], in assay [3], in assay [4], in assay [5] and in [6] was > 30 µM (inactive) each time. Moreover, the Kd in assay [7], in assay [8], in [9] and in assay [10] was > 30 µM (inactive) in each case.

Consider `C#Cc1cccc(Nc2ncnc3cc4c(cc23)OCCOCCOCCO4)c1` [ICOTINIB], for which the Kd in assay [1], in assay [2], in assay [3], in assay [4], in [5] and in assay [6] was > 30 µM (inactive) in each case. Further, the Kd in assay [7], in [8], in assay [9] and in assay [10] was > 30 µM (inactive) each time.

In the case of `Cn1c(=O)c(F)c(Nc2ccc(I)cc2F)c2c(=O)n(C[C@@H](O)CO)cnc21` [TAK-733], the Kd in [1], in assay [2], in assay [3], in assay [4], in [5] and in assay [6] was > 30 µM (inactive) in each case. Also, the Kd in [7], in [8], in assay [9] and in assay [10] was > 30 µM (inactive) in each case.

`COc1cc2ncnc3c2cc1OCCCCCN(C)Cc1ccc(Br)cc1N3` [JNJ-26483327]: the Kd in assay [1], in [2], in assay [3], in assay [4], in assay [5] and in assay [6] was > 30 µM (inactive) each time. In addition, the Kd in assay [7], in assay [8], in assay [9] and in assay [10] was > 30 µM (inactive) each time.

For the molecule `FC(F)(F)c1ccc(CNc2ccc(Cc3c[nH]c4ncc(Cl)cc34)cn2)cn1` [PEXIDARTINIB], the Kd in assay [1], in assay [2], in assay [3], in assay [4], in assay [5] and in assay [6] was > 30 µM (inactive) in each case. In addition, the Kd in [7], in assay [8], in assay [9] and in assay [10] was > 30 µM (inactive) in each case.

For `COc1ccc2c(OCc3nnc4ccc(-c5ccccc5)nn34)ccnc2c1` [AMG-208], the Kd in assay [1], in [2], in assay [3], in assay [4], in assay [5] and in assay [6] was > 30 µM (inactive) each time. Moreover, the Kd in [7], in [8], in assay [9] and in assay [10] was > 30 µM (inactive) each time.

Regarding `Cc1cc(-c2cc(OC(=O)c3ccccc3)ccc2Cl)cc2nnc(Nc3ccc(OCCN4CCCC4)cc3)nc12` [TG100-801], the Kd in assay [1], in assay [2], in [3], in assay [4], in assay [5] and in [6] was > 30 µM (inactive) in each case. For the same molecule, the Kd in [7] is > 30 µM (inactive); in [8] it was > 30 µM (inactive); in assay [9], > 30 µM (inactive); in assay [10], 0.703 µM (active).

Regarding `O=C(NC[C@H](O)CO)c1ccncc1Nc1ccc(I)cc1F` [PIMASERTIB], the Kd in assay [1], in assay [2], in assay [3], in assay [4], in assay [5] and in assay [6] was > 30 µM (inactive) throughout. The Kd in assay [7], in assay [8], in assay [9] and in assay [10] was > 30 µM (inactive) in each case.

For `c1cc(OCCN2CCCCC2)cc(-c2n[nH]c3ccc(-c4nc[nH]n4)cc23)c1` [CC-401], the Kd in [1], in assay [2], in assay [3], in [4], in [5] and in assay [6] was > 30 µM (inactive) throughout. Besides, the Kd is 0.056 µM (active) in assay [7], > 30 µM (inactive) in [8], > 30 µM (inactive) in [9] and > 30 µM (inactive) in assay [10].

The term Kd denotes the equilibrium constant for the complex coming apart.
